According to patent US9957271B2, “Substituted bicyclic aza-heterocycles and analogues as sirtuin modulators” (GlaxoSmithKline, LLC, priority 2012, dated 2018):

Target: T1, SIRT1 (Homo sapiens, UniProt Q96EB6)
T1 sequence (Q96EB6 1-747): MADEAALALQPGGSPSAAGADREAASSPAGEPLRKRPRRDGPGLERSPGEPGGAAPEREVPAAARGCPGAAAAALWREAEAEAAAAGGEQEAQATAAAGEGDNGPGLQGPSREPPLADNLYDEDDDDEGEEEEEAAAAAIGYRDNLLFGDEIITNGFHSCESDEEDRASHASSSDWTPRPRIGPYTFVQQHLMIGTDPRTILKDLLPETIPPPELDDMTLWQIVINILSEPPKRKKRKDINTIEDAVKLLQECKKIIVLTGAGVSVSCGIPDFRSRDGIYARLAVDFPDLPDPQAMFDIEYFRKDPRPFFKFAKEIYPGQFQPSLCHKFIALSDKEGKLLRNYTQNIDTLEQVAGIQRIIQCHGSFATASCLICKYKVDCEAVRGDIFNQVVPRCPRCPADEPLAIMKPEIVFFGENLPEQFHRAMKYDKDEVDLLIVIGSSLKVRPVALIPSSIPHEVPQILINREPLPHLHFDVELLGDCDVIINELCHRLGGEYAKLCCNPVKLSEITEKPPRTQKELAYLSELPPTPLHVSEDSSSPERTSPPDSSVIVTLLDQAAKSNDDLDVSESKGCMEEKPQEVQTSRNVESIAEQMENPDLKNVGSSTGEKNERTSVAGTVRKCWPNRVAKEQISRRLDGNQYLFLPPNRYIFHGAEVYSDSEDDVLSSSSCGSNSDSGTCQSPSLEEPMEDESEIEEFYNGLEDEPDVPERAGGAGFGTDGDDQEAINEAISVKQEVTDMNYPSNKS
Assay: TAMRA based mass spectrometry assay of SIRT1 activity
Assay type: biochemical
Conditions: TAMRA assay; for TAMRA EC1.5 (μM): concentration giving 150% activation of SIRT1; for Emax: read-out: TAMRA % Fold Act
Procedure, shortened: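 Recombinant N-terminal His-tagged human SIRT1 (10 nM, E. coli) incubated 25 min at 25 °C with 0.5 μM 5TMR-labelled p53-derived acetyl-peptide and 120 μM βNAD+ in Tris-acetate pH 8 buffer with DTT and 0.05% BSA, compound at varying concentrations. Stopped with formic acid; deacetylated peptide or OAADPR measured by mass spectrometry relative to DMSO controls.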

[1] = percent maximum fold activation

| Compound | TAMRA EC1.5 (μM) | Emax [1] | TAMRA % Fold Act [1] |
| --- | --- | --- | --- |
| N#Cc1ccccc1-c1ccc2ncc(C(=O)Nc3ccccn3)n2n1 [Compound 200] | B (EC1.5 1-25 μM) | < 350% |  |
| N#Cc1ccccc1-c1ccc2ncc(C(=O)Nc3ccnc(N4CCC4)c3)n2n1 [Compound 201] | B (EC1.5 1-25 μM) | ≥ 350% |  |
| N#Cc1ccccc1-c1ccc2ncc(C(=O)Nc3cccc(CN4CCOCC4)n3)n2n1 [Compound 202] | B (EC1.5 1-25 μM) | < 350% |  |
| N#Cc1ccccc1-c1ccc2ncc(C(=O)Nc3ccncc3)n2n1 [Compound 203] | B (EC1.5 1-25 μM) | < 350% |  |
| O=C(Nc1ncccc1N1CCOCC1)c1cnc2ccc(-c3ccccc3C(F)(F)F)nn12 [Compound 211] | C (EC1.5>25 μM) | < 350% |  |
| O=C(Nc1ccc(N2CCOCC2)nc1)c1cnc2ccc(-c3ccccc3C(F)(F)F)nn12 [Compound 216] | B (EC1.5 1-25 μM) | ≥ 350% |  |
| O=C(Nc1cncc(N2CCOCC2)c1)c1cnc2ccc(-c3ccccc3C(F)(F)F)nn12 [Compound 217] | A (EC1.5<1 μM) | ≥ 350% |  |
| Cc1nc(C(=O)Nc2cnc3ccc(-c4ccccc4C(F)(F)F)nn23)c(C)s1 [Compound 220] | A (EC1.5<1 μM) | ≥ 350% |  |
| Cc1c(-c2ccccc2Cl)nn2c(C(=O)Nc3cccc(N4CCOCC4)n3)cnc2c1C [Compound 229] | A (EC1.5<1 μM) | ≥ 350% |  |
| Cc1cccc(C(=O)Nc2cnc3ccc(-c4ccccc4C(F)(F)F)nn23)n1 [Compound 234] | A (EC1.5<1 μM) | ≥ 350% |  |
| O=C(Nc1cnc2ccc(-c3ccccc3C(F)(F)F)nn12)c1cccc(OCC(O)CO)n1 (stereo not shown) [Compound 235] | A (EC1.5<1 μM) |  | A (Fold activation ≥350%) |
| O=C(Nc1ccncc1)c1cnn2ccc(-c3ccccc3C(F)(F)F)nc12 [Compound 240, N-(pyridin-4-yl)-5-(2-(trifluoromethyl)phenyl)pyrazolo[1,5-a]pyrimidine-3-carboxamide] | A (EC1.5<1 μM) | ≥ 350% |  |
| O=C(Nc1cccc(N2CCOCC2)n1)c1cnn2ccc(-c3ccccc3C(F)(F)F)nc12 [Compound 241] | A (EC1.5<1 μM) | ≥ 350% |  |
| Cc1cc(C)nc(NC(=O)c2cnc3ccc(-c4ccccc4F)nn23)c1 [Compound 243] | A (EC1.5<1 μM) | ≥ 350% |  |
| Cc1cc(C)nc(NC(=O)c2cnc3ccc(-c4ccccc4Cl)nn23)c1 [Compound 245] | A (EC1.5<1 μM) | ≥ 350% |  |
| O=C(Nc1cnn2ccc(-c3ccccc3C(F)(F)F)nc12)c1cccnc1 [Compound 250] | C (EC1.5>25 μM) | < 350% |  |

| Compound | TAMRA EC1.5 (μM) | Emax [1] | TAMRA % Fold Act [1] |
| --- | --- | --- | --- |
| O=C(Nc1cnn2ccc(-c3ccccc3C(F)(F)F)nc12)c1ncccn1 [Compound 252] | B (EC1.5 1-25 μM) | ≥ 350% |  |
| O=C(Nc1cnn2ccc(-c3ccccc3C(F)(F)F)nc12)c1cccc(N2CCOCC2)n1 [Compound 256] | A (EC1.5<1 μM) | ≥ 350% |  |
| O=C(Nc1cccc(OCC(F)(F)F)n1)c1cnc2ccc(-c3ccccc3F)nn12 [Compound 258] | C (EC1.5>25 μM) | < 350% |  |
| Cc1cc(NC(=O)c2cnc3ccc(-c4ccccc4Cl)nn23)ccn1 [Compound 259] | B (EC1.5 1-25 μM) | ≥ 350% |  |
| O=C(Nc1cccc(OCC(F)(F)F)n1)c1cnc2ccc(-c3ccccc3Cl)nn12 [Compound 262] | C (EC1.5>25 μM) | < 350% |  |
| O=C(Nc1ccccn1)c1cnn2ccc(-c3ccccc3C(F)(F)F)nc12 [Compound 265, N-(pyridin-2-yl)-5-(2-(trifluoromethyl)phenyl)pyrazolo[1,5-a]pyrimidine-3-carboxamide] | A (EC1.5<1 μM) | ≥ 350% |  |
| O=C(Nc1ccncn1)c1cnn2ccc(-c3ccccc3C(F)(F)F)nc12 [Compound 268] | A (EC1.5<1 μM) | ≥ 350% |  |
| CC(C)c1nccc(C(=O)Nc2cnc3ccc(-c4ccccc4C(F)(F)F)nn23)n1 [Compound 274] | A (EC1.5<1 μM) | ≥ 350% |  |
| O=C(Nc1cnc2ccc(-c3ccccc3F)nn12)c1cnccn1 [Compound 280] | B (EC1.5 1-25 μM) | < 350% |  |
| O=C(Nc1cnc2ccc(-c3ccccc3F)nn12)c1ncccn1 [Compound 282] | B (EC1.5 1-25 μM) | < 350% |  |
| O=C(Nc1ccnc(OCC(O)CO)c1)c1cnc2ccc(-c3ccccc3Cl)nn12 (stereo not shown) [Compound 283] | A (EC1.5<1 μM) | < 350% |  |
| Cc1cc(OCC(O)CO)nc(NC(=O)c2cnc3ccc(-c4ccccc4F)nn23)n1 (stereo not shown) [Compound 286] | B (EC1.5 1-25 μM) | < 350% |  |
| O=C(Nc1cnc2ccc(-c3ccccc3Cl)nn12)c1cnccn1 [Compound 288] | B (EC1.5 1-25 μM) | < 350% |  |
| O=C(Nc1cnc2ccc(-c3ccccc3Cl)nn12)c1ccncn1 [Compound 289] | B (EC1.5 1-25 μM) | < 350% |  |
| Cc1nc(C(=O)Nc2cnc3ccc(-c4ccccc4Cl)nn23)cs1 [Compound 292] | A (EC1.5<1 μM) | ≥ 350% |  |

Now from value to molecule:

| TAMRA EC1.5 (μM) | Emax [1] | TAMRA % Fold Act [1] | Compound |
| --- | --- | --- | --- |
| B (EC1.5 1-25 μM) | < 350% |  | N#Cc1ccccc1-c1ccc2ncc(C(=O)Nc3cnccn3)n2n1 [Compound 205] |
| A (EC1.5<1 μM) | ≥ 350% |  | Cc1cc(-c2ccccc2C(F)(F)F)nn2c(C(=O)Nc3cnccn3)cnc12 [Compound 208] |
| A (EC1.5<1 μM) | ≥ 350% |  | Cc1cc2ncc(C(=O)Nc3cccc(N4CCOCC4)n3)n2nc1-c1ccccc1C(F)(F)F [Compound 209] |
| A (EC1.5<1 μM) | ≥ 350% |  | O=C(Nc1cccc(OCC(O)CO)n1)c1cnc2ccc(-c3ccccc3C(F)(F)F)nn12 (stereo not shown) [Compound 212, N-(6-(2,3-dihydroxypropoxy)pyridin-2-yl)-6-(2-(trifluoromethyl)phenyl)imidazo[1,2-b]pyridazine-3-carboxamide] |
| A (EC1.5<1 μM) | ≥ 350% |  | Cc1cnc(C(=O)Nc2cnc3ccc(-c4ccccc4C(F)(F)F)nn23)cn1 [Compound 219, 5-methyl-N-(6-(2-(trifluoromethyl)phenyl)imidazo[1,2-b]pyridazin-3-yl)pyrazine-2-carboxamide] |
| A (EC1.5<1 μM) | ≥ 350% |  | Cc1cc2ncc(C(=O)Nc3ccnc(N4CCC4)c3)n2nc1-c1ccccc1C(F)(F)F [Compound 225] |
| B (EC1.5 1-25 μM) | ≥ 350% |  | O=C(Nc1nccc(OCC(O)CO)n1)c1cnc2ccc(-c3ccccc3C(F)(F)F)nn12 (stereo not shown) [Compound 226] |
| A (EC1.5<1 μM) | ≥ 350% |  | Cc1cc(C)nc(NC(=O)c2cnc3c(C)c(C)c(-c4ccccc4C(F)(F)F)nn23)c1 [Compound 228] |
| A (EC1.5<1 μM) | ≥ 350% |  | Cc1cccnc1C(=O)Nc1cnc2ccc(-c3ccccc3C(F)(F)F)nn12 [Compound 232] |
| A (EC1.5<1 μM) | ≥ 350% |  | Cc1nc(NC(=O)c2cnc3ccc(-c4ccccc4C(F)(F)F)nn23)sc1C [Compound 237] |
| B (EC1.5 1-25 μM) | ≥ 350% |  | Cc1cc2ncc(C(=O)Nc3cnccn3)n2nc1-c1ccccc1C(F)(F)F [Compound 246] |
| A (EC1.5<1 μM) | ≥ 350% |  | Cc1cc(C)nc(NC(=O)c2cnc3ccc(-c4ccccc4C(F)(F)F)nn23)n1 [Compound 247] |
| B (EC1.5 1-25 μM) | ≥ 350% |  | O=C(Nc1cnn2ccc(-c3ccccc3C(F)(F)F)nc12)c1cnccn1 [Compound 253] |
| B (EC1.5 1-25 μM) | ≥ 350% |  | O=C(Nc1cccc(OCC(F)(F)F)n1)c1cnc2ccc(-c3ccccc3C(F)(F)F)nn12 [Compound 264] |
| A (EC1.5<1 μM) | ≥ 350% |  | Cc1ccnc(NC(=O)c2cnc3ccc(-c4ccccc4C(F)(F)F)nn23)n1 [Compound 270] |
| A (EC1.5<1 μM) | ≥ 350% |  | Cc1scnc1C(=O)Nc1cnc2ccc(-c3ccccc3C(F)(F)F)nn12 [Compound 271] |
| A (EC1.5<1 μM) | ≥ 350% |  | Cc1ccc(NC(=O)c2cnc3ccc(-c4ccccc4C(F)(F)F)nn23)nn1 [Compound 276] |
| A (EC1.5<1 μM) | ≥ 350% |  | Cc1cc(OCC2(C)COC2)nc(NC(=O)c2cnc3ccc(-c4ccccc4C(F)(F)F)nn23)n1 [Compound 277] |
| B (EC1.5 1-25 μM) | < 350% |  | CC(CO)(CO)Oc1nccc(NC(=O)c2cnc3ccc(-c4ccccc4C(F)(F)F)nn23)n1 [Compound 278] |
